# ChEMBL document CHEMBL1144255, “A non-crosslinking platinum-acridine hybrid agent shows enhanced cytotoxicity compared to clinical BCNU and cisplatin in glioblastoma cells” (Bioorg Med Chem Lett, 2005)
# Tests used:
# [1] = In vitro inhibitory concentration against growth of SNB19 glioblastoma cell line in clonogenic survival assay after 24 hr; type: functional, cell-based, Homo sapiens
# U-87 MG = assay: In vitro inhibitory concentration against growth of U87MG glioblastoma cell line in clonogenic survival assay after 24 hr; type: functional, cell-based, Homo sapiens, U-87MG ATCC
# [2] = Homo sapiens, Glioblastoma, 24 h
Compound,"IC50 [1, 2] [nM]","IC50 (U-87 MG; Homo sapiens, U-87 MG, 24 h) [nM]",IC50 ([1]; glioblastoma) [nM],IC50 (U-87 MG; u-87mg atcc) [nM]
O=NN(CCCl)C(=O)NCCCl [CARMUSTINE],2370,1420,–,–
CNC(=S)N(C)CCNc1c2ccccc2nc2ccccc12,2460,1830,–,–
CISPLATIN,–,–,810,490
